Measurements reported in patent publication US20110288036A1, “Methods for Treating or Preventing Vascular Graft Failure” (priority 2010, published 2011).

How the values were obtained:
THP-1 cells = assay: Cytokine ELISA in PMA/LPS-activated THP-1 cells; type: cell-based, human; conditions: PMA then LPS
Description: The ability of MMI-0100 ([…]; SEQ ID NO: 1) to inhibit the production of inflammatory cytokines (TNF-α and IL-1β) in vitro was examined using THP-1 cells. Briefly, THP-1 cells were activated with PMA for 24 hours, and treated subsequently with 10 μg of LPS. The amount of inflammatory cytokines (TNF-α and IL-1β, pg/ml) produced in the medium in the presence or absence of increasing concentrations (1 μM, 3 μM, 10 μM, and 30 μM) of MMI-0100 ([…]; SEQ ID NO: 1) was determined by cytokine specific enzyme-linked immunosorbent assay (ELISA). Analysis of inflammatory cytokines (TNF-α and IL-1β) was performed with cytokine-specific ELISA kit (PeproTech, Inc., Rocky Hill, N.J.). The cytokine-specific ELISA employs highly-purified anti-cytokine antibodies (capture antibodies) that are noncovalently adsorbed (“coated”) onto plastic microwell plates. After washings, the immobilized antibodies capture specifically soluble cytokine proteins present in samples applied to the plate. After washing away unbound material, the captured cytokine proteins are detected by biotin-conjugated anti-cytokine antibodies (detection antibodies) followed by an enzyme-labeled avidin or streptavidin reporter. Following addition of a chromogenic (color-developing) substrate-containing solution, the level of colored product generated by the bound, enzyme-linked, detection reagents can be measured spectrophotometrically using an ELISA-plate reader at an appropriate optical density.
In order to prepare plates for ELISA, capture antibodies (anti-TNF-α or anti-IL-1β antibodies) were diluted with PBS to a concentration of 1 μg/ml. 100 μl of each diluted antibody was added immediately to each well of the ELISA plate. […]
The standard was diluted from 2 ng/ml to zero in diluent, and 100 μl of the standard or sample was added immediately to each well in triplicate and incubated at room temperature for at least 2 hours. […] The level of colored product generated by the bound, enzyme-linked, detection reagents was measured spectrophotometrically using an ELISA-plate reader at an appropriate optical density.

[1] = test system: human endothelial cell (EC); assay: MTS cell proliferation assay, endothelial cells; type: cell-based; conditions: pre-treatment 20 ng/ml TNF-α
Description: Primary human aortic endothelial cells (HAEC) and primary human aortic smooth muscle cells (HASMC) were obtained from Invitrogen; primary human coronary artery endothelial cells (HCAEC) were obtained from Lonza.
All cultures were maintained in 25 cm^2 polystyrene tissue culture flasks in a 37° C., 5% CO2/95% air environment, with cell culture media refreshed every other day. All cells were seeded at a density of 20,000˜30,000 cells/cm^2, as required by the specific experiment, and allowed to grow to 80-90% confluence before being harvested/passaged. Only cells from early passages (numbers 2-8) were utilized in experiments.
The CellTiter 96® AQueous Non-Radioactive Cell Proliferation Assay (Promega) was used to assess drug effects on cell proliferation according to the manufacturer's instructions. Briefly, HAECs and HASMCs from early passages were grown to 80-90% confluence in 25 cm^2 tissue culture flasks in a 37° C./5% CO2 incubator prior to harvest. 200 μl of each type of cell suspension (at 20,000 cells/cm^2) was seeded onto separate 96-well plates to yield an approximate 60% confluence per well. Cells were allowed to adhere to the plate surface overnight, followed by addition of 20 ng/ml of TNF-α to stimulate production of inflammatory agents. After a 4-6 hour incubation period, MMI-0100 peptide drug ([…]; SEQ ID NO: 1) was added and cells incubated for another 20-24 hours. Each well was then supplemented with 100 μl of fresh medium and 20 μl of CellTiter 96® AQueous One Solution Reagent and incubated for an additional 1.5-2 hours prior to measuring absorbance of each well at 490 nm with a SoftMax®-equipped plate reader.
In order to determine the effect of pharmacological doses of MMI-0100 ([…]; SEQ ID NO: 1) on human endothelial cell (EC) and smooth muscle cell (SMC) proliferation, human EC and SMC cultures were treated with three concentrations (0.25 mM, 0.5 mM, and 1 mM) of MMI-0100 ([…] (SEQ ID NO: 1)) following pre-treatment with TNF-α.

YARAAARQARAKALARQLGVAA [MMI-0100]
IL-1β level in the medium (THP-1 cells; 30 μM, PMA/LPS alone about 450 pg/ml): about 100 pg/ml | TNF-α level in the medium (THP-1 cells; 30 μM, PMA/LPS alone about 1000 pg/ml): about 300 pg/ml | production of pro-inflammatory cytokines (TNF-α and IL-1β) (THP-1 cells; 1, 3, 10 and 30 μM): inhibits the production of pro-inflammatory cytokines (i.e., TNF-α and IL-1β) in a dose-dependent manner | EC proliferation vs TNF-α alone control ([1]; 0.25 mM): slightly increased cell proliferation | increase in EC proliferation vs TNF-α alone control ([1]; 0.5 mM): 30% | increase in EC proliferation vs TNF-α alone control ([1]; 1 mM): 11%
